Results reported in US20060004036A1, “Sigma-2 receptor agonists and their use in the treatment of HIV infection” (The United States of America, per Secy. DHHS, NIH, priority 2003, published 2006).

Legend:
[1] = test system: HIV; assay: HIV infectivity assay, luciferase activity in CEMX174 cells with SIV LTR-driven luciferase gene; format: cell-based; settings: for inhibition of HIV infection (in words): lymphocytes incubated 24 hours with drug, washed, exposed to HIV for 24 hours, luciferase activity (FIG. 2)
Description: CEMX174 cells transfected with a luciferase gene driven by the Simian Immunodeficiency Virus (SIV) LTR are used in infectivity assays. Cells are then treated with sigma-2 receptor agonists at various concentrations followed by incubation in the presence or absence (control) of HIV. Luciferase activity quantifies HIV replication.
This inhibition of HIV infection occurs at doses within the range of concentrations of CB-184 and haldol that produce reductions in membrane sphingomyelin, as shown above in FIG. 1. In these experiments, lymphocytes transfected with a luciferease gene driven by the Simian Immunodeficiency virus (SIV)LTR were incubated for 24 hours in the presence of the indicated dose of sigma-2 receptor agonist. The drugs were then removed, cells were washed and exposed to HIV for 24 hours. Cells were then lysed and luciferase activity quantified. Luciferase activity indicates the level of infectivity of the HIV virions. All of the compounds evaluated with sigma-2 agonist activity inhibited HIV infection at concentrations that were non-toxic to lymphocytes.

[2] = test system: H9 lymphocytes; assay: Membrane sphingomyelin levels in [3H]palmitic acid-labeled H9 lymphocytes; format: cell-based; settings: H9 cells, 24 hours incubation (FIG. 1)
Description: Methods: Membrane sphingomyelin is metabolically labeled in H9 lymphocytes by incubating the cells with [^3H] palmitic acid in supplemented RPMI media for 48 h. Labeled media is removed and cells are incubated in the presence or absence of various concentrations of the sigma-2 receptor agonists CB-184 or haldol (haloperidol) for 24 hours. Total lipids are extracted and the dried organic layer is chromatographed on Silica G-60 plates. Sphingomyelin spots are scraped and quantified by liquid scintillation counting.

Row | Structure (SMILES) | inhibition of HIV infection (in words) [1] | effect of the antagonist on the ability of CB-184 to inhibit HIV infection of lymphocytes (in words) ([1]; with CB-184 at various doses and different HIV viral titres (FIG. 3, 4, 5)) | reduction of control levels of membrane sphingomyelin ([2]; 0.3 μM) | reduction of control levels of membrane sphingomyelin ([2]; 1 μM)
1 | O=C(CCCN1CCC(O)(c2ccc(Cl)cc2)CC1)c1ccc(F)cc1 [haldol, haloperidol, reference compound] | dose-dependent inhibition |  |  | 
2 | CN1CC[C@]2(c3cccc(O)c3)CC(=O)/C(=C/c3ccccc3)[C@H]1C2 [CB-64D] | dose-dependent inhibition |  |  | 
3 | c1ccc(CCN2CCCCC2)cc1 [AC-927, N-phenethylpiperidine, reference compound] |  | reversed |  | 
4 | CN(CCc1ccc(Cl)c(Cl)c1)[C@H]1CCCC[C@H]1N1CCCC1 (relative stereo) [BD737, 1S,2R-(+)-cis-N-[2-(3,4-dichlorophenyl)ethyl]-N-methyl-2-(1-pyrrolidinyl)-cyclohexylamine] | dose-dependent inhibition |  |  | 
5 | CN1CC[C@]2(c3cccc(O)c3)CC(=O)/C(=C/c3ccc(Cl)c(Cl)c3)[C@H]1C2 [CB-184, (+)-1R,5R-E-8-(3,4-dichlorobenzylidene)-5-(3-hydroxyphenyl)-2-methylmorphan-7-one] | dose-dependent inhibition |  | about 39% | ~45%
